Results taken from patent publication US7074789B2, “Kinase inhibitors” (Amgen Inc., priority 1999, dated 2006).
pIC50: −log10 of the molar value. Read-outs that look alike come from different tables or passages of the source.

How the values were obtained:
Format in all cases: biochemical
[1] = biological target: T1, FGFR1 (Homo sapiens, UniProt P11362); test: Kinase inhibition assay (33P transfer), FGFR1; conditions: read-out: FGFR1-1
T1 construct: Kinases are expressed as either kinase domains or full length constructs; made in house

[2] = biological target: T2, Lck (Homo sapiens, UniProt P06239); test: Kinase inhibition assay (33P transfer), Lck; conditions: read-out: Lck-1
T2 construct: Kinases are expressed as either kinase domains or full length constructs; made in house
How it was run: (§1)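 Measured by scintillation: radiolabelled phosphate added by tagged recombinant kinases to poly(Glu,Tyr) 4:1 or poly(Arg,Ser) 3:1 attached to microtiter wells, counted once free label was washed away with 0.5% phosphoric acid.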

[3] = biological target: T3, PDGFRB (Homo sapiens, UniProt P09619); test: Kinase inhibition assay (33P transfer), PDGFRB; conditions: read-out: PDGFRB-1
T3 construct: Kinases are expressed as either kinase domains or full length constructs; made in house

[4] = biological target: T4, ErbB4 (Homo sapiens, UniProt Q15303); test: Kinase inhibition assay (33P transfer), ErbB4; conditions: read-out: ErbB4-1
T4 construct: Kinases are expressed as either kinase domains or full length constructs; made in house

[5] = biological target: T5, EGFR (Homo sapiens, UniProt P00533); test: Kinase inhibition assay (33P transfer), EGFR; conditions: Table 2, kinase inhibition class; read-out: EGFR-1
T5 construct: Kinases are expressed as either kinase domains or full length constructs; made in house
How it was run: (§2)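 Radiometric format: recombinant tagged kinase (catalytic domain or whole protein, sometimes combined with regulatory polypeptides) phosphorylates immobilised poly(Glu,Tyr) 4:1 or poly(Arg,Ser) 3:1 using [33P]ATP. Wells are washed in 0.5% phosphoric acid, then counted. IC50 is taken where substrate labelling falls by half.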

[6] = biological target: T6, Src (Homo sapiens, UniProt P12931); test: Kinase inhibition assay (33P transfer), Src; conditions: Table 6, Src-1 kinase inhibition class
T6 construct: Kinases are expressed as either kinase domains or full length constructs; made in house
How it was run: as §2

[7] = biological target: T7, IGFR-1 (Homo sapiens, UniProt P08069); test: Kinase inhibition assay, IGFR-1 (Table 2); conditions: Table 2, kinase inhibition class
T7 construct: Kinases are expressed as either kinase domains or full length constructs; made in house

[8] = biological target: T8, Fyn (Homo sapiens, UniProt P06241); test: Kinase inhibition assay (33P transfer), Fyn; conditions: read-out: Fyn-1
T8 construct: Kinases are expressed as either kinase domains or full length constructs; made in house
How it was run: as §2

[9] = biological target: T9, Hck-1 (Homo sapiens, UniProt P08631); test: Kinase inhibition assay (33P transfer), Hck; conditions: Table 6, Hck-1 kinase inhibition class
T9 construct: Kinases are expressed as either kinase domains or full length constructs; made in house

[10] = biological target: T10, ErbB2 (Homo sapiens, UniProt P04626); test: Kinase inhibition assay (33P transfer), ErbB2; conditions: read-out: ErbB2-2
T10 construct: Kinases are expressed as either kinase domains or full length constructs; made in house
How it was run: as §2

[11] = biological target: T11, c-Met (Homo sapiens, UniProt P08581); test: Kinase inhibition assay (33P transfer), c-Met; conditions: Table 2, kinase inhibition class; read-out: Met-1
T11 construct: Kinases are expressed as either kinase domains or full length constructs; made in house
How it was run: as §2

[12] = biological target: T12, Kdr (Homo sapiens, UniProt P35968); test: Kinase inhibition assay (33P transfer), Kdr; conditions: read-out: KDR-1
T12 construct: Kinases are expressed as either kinase domains or full length constructs; made in house
How it was run: as §1

[13] = biological target: T13, Flt-1 (Homo sapiens, UniProt P17948); test: Kinase inhibition assay (33P transfer), Flt-1
T13 construct: Kinases are expressed as either kinase domains or full length constructs; made in house
How it was run: as §2

[14] = biological target: T14, Itk (Homo sapiens, UniProt Q08881); test: Kinase inhibition assay (33P transfer), Itk; conditions: read-out: Itk-1
T14 construct: Kinases are expressed as either kinase domains or full length constructs; made in house
T14 sequence (Q08881 1-620): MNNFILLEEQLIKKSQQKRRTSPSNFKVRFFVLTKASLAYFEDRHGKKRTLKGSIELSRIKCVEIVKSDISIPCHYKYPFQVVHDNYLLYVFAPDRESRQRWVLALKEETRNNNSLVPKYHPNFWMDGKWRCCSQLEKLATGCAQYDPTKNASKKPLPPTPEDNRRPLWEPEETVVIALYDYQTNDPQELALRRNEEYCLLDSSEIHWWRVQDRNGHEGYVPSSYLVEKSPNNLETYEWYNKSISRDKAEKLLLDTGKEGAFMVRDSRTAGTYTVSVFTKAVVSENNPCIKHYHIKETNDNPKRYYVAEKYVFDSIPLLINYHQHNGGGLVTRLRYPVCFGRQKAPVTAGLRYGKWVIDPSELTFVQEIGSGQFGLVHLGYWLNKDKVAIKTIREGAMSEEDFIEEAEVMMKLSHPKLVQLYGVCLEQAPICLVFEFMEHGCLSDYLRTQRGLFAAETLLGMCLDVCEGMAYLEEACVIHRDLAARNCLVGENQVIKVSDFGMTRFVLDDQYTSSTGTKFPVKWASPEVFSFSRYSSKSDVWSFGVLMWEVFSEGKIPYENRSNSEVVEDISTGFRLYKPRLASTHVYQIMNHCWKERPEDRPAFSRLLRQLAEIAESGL
How it was run: as §2

[15] = biological target: T15, Zap-70 (Homo sapiens, UniProt P43403); test: Kinase inhibition assay (33P transfer), Zap-70; conditions: read-out: Zap-1
T15 construct: Kinases are expressed as either kinase domains or full length constructs; made in house
T15 sequence (P43403 1-619): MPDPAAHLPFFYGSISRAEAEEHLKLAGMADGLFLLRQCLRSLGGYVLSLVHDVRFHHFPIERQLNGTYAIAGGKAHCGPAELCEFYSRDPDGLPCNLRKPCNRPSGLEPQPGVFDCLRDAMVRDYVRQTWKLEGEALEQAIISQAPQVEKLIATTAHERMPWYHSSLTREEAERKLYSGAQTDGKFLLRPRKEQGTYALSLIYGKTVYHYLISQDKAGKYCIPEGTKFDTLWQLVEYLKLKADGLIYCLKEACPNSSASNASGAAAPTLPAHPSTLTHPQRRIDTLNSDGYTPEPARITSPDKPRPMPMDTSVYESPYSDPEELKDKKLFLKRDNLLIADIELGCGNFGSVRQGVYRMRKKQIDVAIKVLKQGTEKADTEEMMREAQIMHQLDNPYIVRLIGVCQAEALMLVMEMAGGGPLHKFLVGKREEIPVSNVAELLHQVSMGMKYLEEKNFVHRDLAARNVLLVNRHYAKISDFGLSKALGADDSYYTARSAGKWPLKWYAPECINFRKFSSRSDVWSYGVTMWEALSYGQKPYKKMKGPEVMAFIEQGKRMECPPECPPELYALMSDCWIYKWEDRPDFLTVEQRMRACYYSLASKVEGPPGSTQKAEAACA
How it was run: as §1

[16] = biological target: T16, AKT (Homo sapiens, UniProt Q9Y243); test: Kinase inhibition assay (33P transfer), AKT; conditions: Table 2, kinase inhibition class; read-out: AKT3-1
T16 construct: Kinases are expressed as either kinase domains or full length constructs; made in house
How it was run: as §1

[17] = biological target: T17, Tek (Homo sapiens, UniProt Q02763); test: Kinase inhibition assay (33P transfer), Tek; conditions: read-out: Tek-1
T17 construct: Kinases are expressed as either kinase domains or full length constructs; made in house
How it was run: as §2

[18] = biological target: T18, Lyn (Homo sapiens, UniProt P07948); test: Kinase inhibition assay (33P transfer), Lyn; conditions: Table 6, Lyn-1 kinase inhibition class
T18 construct: Kinases are expressed as either kinase domains or full length constructs; made in house
How it was run: as §2

[19] = biological target: T3, PDGFRB; test: Kinase inhibition assay (33P transfer), PDGFRB; conditions: read-out: PDGFRB-1; remark: listed apart in the source
[20] = biological target: T7, IGFR-1; test: Kinase inhibition assay (33P transfer), IGFR-1; conditions: Table 2, kinase inhibition class

T6 sequence (P12931 whole entry, species assumed, the tested form may be a part): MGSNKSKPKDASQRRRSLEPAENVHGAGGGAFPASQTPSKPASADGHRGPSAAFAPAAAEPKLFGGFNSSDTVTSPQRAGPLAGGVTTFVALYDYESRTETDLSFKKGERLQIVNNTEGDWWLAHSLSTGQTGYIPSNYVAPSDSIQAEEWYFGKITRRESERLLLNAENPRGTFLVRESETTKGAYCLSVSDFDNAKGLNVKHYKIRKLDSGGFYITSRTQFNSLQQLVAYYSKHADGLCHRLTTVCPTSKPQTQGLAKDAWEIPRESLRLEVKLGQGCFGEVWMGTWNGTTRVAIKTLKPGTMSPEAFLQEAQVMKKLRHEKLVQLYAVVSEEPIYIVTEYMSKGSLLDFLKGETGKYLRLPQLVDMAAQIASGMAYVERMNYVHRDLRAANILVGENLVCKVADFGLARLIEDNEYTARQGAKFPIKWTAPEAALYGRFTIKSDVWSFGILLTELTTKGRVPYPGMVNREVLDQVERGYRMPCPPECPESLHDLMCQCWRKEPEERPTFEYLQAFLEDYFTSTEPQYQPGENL
T16 sequence (Q9Y243 whole entry, the tested form may be a part): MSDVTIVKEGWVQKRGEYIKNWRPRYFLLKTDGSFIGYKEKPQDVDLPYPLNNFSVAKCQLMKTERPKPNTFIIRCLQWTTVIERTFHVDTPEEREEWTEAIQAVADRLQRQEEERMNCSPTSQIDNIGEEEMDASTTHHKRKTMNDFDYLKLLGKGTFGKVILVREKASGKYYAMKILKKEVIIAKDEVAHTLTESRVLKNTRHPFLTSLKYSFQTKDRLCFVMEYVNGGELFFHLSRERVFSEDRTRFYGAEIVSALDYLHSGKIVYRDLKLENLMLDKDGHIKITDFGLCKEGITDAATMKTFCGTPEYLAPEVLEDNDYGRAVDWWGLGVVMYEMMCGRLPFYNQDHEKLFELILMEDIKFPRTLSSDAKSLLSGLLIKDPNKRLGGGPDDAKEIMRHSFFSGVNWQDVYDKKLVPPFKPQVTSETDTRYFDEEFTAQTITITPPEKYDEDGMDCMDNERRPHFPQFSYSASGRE
T3 sequence (P09619 33-1106, species assumed): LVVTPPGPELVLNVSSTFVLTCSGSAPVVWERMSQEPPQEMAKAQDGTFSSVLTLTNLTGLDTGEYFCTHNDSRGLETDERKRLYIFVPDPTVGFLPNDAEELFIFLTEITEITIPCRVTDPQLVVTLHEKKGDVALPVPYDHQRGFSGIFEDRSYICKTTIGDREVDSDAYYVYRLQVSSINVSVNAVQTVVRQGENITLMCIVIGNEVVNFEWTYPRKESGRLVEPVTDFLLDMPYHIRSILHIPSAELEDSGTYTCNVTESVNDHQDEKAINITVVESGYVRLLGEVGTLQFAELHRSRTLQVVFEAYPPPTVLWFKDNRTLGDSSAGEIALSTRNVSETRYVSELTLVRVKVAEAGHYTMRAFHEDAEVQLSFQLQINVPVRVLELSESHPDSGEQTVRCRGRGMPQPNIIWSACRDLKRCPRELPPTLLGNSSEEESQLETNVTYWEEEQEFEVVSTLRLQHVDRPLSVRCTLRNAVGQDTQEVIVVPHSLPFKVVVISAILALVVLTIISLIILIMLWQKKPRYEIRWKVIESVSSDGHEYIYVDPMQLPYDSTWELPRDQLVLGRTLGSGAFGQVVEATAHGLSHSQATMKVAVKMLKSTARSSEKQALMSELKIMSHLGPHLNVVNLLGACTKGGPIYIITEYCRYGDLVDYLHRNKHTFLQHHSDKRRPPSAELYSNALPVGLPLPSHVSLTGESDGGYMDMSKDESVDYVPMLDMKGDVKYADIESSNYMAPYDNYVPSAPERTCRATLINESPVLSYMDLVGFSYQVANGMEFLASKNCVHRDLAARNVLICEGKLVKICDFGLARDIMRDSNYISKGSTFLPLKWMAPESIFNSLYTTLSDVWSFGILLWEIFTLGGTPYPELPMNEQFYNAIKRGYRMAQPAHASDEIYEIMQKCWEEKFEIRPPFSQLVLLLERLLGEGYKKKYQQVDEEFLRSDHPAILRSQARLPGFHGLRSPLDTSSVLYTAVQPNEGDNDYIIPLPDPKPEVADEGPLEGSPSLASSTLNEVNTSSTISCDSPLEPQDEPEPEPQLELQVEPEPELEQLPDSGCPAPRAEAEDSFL
T1 sequence (P11362 22-822, species assumed): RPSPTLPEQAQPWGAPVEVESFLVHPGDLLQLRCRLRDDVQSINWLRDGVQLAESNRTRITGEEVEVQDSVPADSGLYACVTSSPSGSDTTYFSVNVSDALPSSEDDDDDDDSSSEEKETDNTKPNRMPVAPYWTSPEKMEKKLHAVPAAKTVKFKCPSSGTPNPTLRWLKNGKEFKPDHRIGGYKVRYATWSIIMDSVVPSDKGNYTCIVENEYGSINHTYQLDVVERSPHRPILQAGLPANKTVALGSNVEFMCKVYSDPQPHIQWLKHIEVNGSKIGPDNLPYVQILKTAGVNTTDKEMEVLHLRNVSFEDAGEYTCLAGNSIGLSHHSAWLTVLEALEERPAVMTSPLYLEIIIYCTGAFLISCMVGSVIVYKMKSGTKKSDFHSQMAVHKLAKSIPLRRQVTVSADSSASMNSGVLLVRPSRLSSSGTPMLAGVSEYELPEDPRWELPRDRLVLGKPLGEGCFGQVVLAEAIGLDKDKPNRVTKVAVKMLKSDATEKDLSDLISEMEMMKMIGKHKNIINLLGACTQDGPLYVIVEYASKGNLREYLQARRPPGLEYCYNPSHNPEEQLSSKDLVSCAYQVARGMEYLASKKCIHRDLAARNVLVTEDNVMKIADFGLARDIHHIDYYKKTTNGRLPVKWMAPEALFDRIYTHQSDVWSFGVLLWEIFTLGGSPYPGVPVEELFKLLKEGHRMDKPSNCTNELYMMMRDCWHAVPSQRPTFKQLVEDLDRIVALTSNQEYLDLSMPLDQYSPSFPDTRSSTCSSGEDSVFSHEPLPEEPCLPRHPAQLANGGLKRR
T12 sequence (P35968 20-1356, species assumed): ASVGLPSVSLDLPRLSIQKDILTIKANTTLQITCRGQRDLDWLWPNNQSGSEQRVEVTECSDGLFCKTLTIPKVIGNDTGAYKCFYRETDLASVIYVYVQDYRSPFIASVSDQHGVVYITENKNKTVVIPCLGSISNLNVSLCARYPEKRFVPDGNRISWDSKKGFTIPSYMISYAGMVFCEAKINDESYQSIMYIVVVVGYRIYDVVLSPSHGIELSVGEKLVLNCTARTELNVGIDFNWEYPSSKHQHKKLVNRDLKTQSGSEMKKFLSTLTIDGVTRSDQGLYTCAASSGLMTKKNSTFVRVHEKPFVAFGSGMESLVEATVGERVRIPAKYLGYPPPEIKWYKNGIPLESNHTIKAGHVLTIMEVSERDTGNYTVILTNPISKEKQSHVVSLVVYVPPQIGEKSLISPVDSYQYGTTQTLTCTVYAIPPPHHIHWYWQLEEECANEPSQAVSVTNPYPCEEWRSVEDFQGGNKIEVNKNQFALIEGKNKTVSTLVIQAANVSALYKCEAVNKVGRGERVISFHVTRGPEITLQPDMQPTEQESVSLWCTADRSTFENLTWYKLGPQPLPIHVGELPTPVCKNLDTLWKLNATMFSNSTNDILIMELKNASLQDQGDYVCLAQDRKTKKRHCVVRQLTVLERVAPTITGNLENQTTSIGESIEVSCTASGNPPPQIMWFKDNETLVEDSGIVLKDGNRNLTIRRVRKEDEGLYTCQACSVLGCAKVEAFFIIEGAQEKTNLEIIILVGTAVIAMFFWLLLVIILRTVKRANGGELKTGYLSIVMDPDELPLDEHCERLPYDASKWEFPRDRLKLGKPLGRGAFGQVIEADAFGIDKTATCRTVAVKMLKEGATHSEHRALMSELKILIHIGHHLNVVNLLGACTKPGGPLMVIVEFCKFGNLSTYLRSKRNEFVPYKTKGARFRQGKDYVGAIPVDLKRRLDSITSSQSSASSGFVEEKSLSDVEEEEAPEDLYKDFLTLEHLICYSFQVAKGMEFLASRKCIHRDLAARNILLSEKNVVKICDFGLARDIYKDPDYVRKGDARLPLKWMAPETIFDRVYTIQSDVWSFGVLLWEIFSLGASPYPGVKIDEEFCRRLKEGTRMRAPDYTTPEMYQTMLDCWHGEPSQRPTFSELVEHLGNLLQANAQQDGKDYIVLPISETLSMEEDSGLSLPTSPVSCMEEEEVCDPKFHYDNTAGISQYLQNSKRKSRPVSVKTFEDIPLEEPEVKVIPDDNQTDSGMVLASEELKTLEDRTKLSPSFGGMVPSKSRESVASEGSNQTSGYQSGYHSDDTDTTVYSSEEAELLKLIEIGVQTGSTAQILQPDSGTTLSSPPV
T18 sequence (P07948 whole entry, species assumed, the tested form may be a part): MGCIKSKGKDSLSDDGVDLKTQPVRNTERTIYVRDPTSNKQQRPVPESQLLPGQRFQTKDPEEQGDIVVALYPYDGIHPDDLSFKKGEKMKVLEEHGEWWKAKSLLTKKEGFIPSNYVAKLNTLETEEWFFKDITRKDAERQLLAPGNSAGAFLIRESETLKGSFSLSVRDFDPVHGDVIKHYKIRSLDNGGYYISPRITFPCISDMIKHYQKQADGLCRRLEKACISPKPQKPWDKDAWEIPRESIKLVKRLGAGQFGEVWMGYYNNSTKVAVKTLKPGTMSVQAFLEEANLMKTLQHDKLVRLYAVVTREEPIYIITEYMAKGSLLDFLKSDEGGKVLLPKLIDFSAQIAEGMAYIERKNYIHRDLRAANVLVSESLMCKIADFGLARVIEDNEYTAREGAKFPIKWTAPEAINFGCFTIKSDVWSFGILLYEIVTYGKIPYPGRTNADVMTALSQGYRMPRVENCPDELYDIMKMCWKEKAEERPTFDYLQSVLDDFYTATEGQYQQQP

COc1cc(Nc2ncnc(-n3c(NCc4ccccn4)nc4ccccc43)n2)cc(OC)c1OC [Compound 414]
pIC50 [1]: > 6.08
pIC50 ([2]; Table 3): < 5.03
pIC50 [2]: 5.31 to 6.08
pIC50 [3]: > 6.08
pIC50 [4]: < 5.03
pIC50 [5]: < 5.03
pIC50 [6]: < 5.03
pIC50 [7]: 5.03 to 5.14
pIC50 [8]: 5.31 to 6.08
pIC50 [9]: < 5.03
pIC50 [10]: < 5.03
pIC50 [11]: < 5.03
pIC50 ([12]; Table 3): > 6.08
pIC50 [12]: > 6.08
pIC50 [13]: > 6.08
pIC50 ([14]; Table 3): < 5.03
pIC50 [14]: < 5.03
pIC50 ([15]; Table 3): < 5.03
pIC50 [15]: < 5.03
pIC50 [16]: < 5.03
pIC50 [17]: < 5.03
pIC50 [18]: < 5.03
pIC50 [19]: > 6.08
pIC50 [20]: < 5.03

COc1cc(Nc2ncnc(NC3CC3c3ccccc3)n2)cc(OC)c1OC (stereo not shown) [Compound 428]
pIC50 [1]: 5.05 to 5.21
pIC50 ([2]; Table 3): > 5.99
pIC50 [4]: 5.21 to 5.99
pIC50 [5]: > 5.99
pIC50 [6]: 5.21 to 5.99
pIC50 [8]: 5.21 to 5.99
pIC50 [9]: < 4.94
pIC50 [10]: 5.21 to 5.99
pIC50 [11]: < 4.94
pIC50 ([12]; Table 3): 5.05 to 5.21
pIC50 [13]: < 4.94
pIC50 ([14]; Table 3): < 4.94
pIC50 ([15]; Table 3): < 4.94
pIC50 [16]: < 4.94
pIC50 [17]: < 4.94
pIC50 [18]: > 5.99
pIC50 [19]: 5.21 to 5.99
pIC50 [20]: 5.21 to 5.99

CNc1nc2ccccc2n1-c1ncnc(Nc2cc(OC)c(OC)c(OC)c2)n1 [Compound 417]
pIC50 [1]: > 6.01
pIC50 ([2]; Table 3): > 6.01
pIC50 [4]: < 4.96
pIC50 [5]: < 4.96
pIC50 [6]: 5.23 to 6.01
pIC50 [8]: 5.07 to 5.23
pIC50 [9]: < 4.96
pIC50 [11]: < 4.96
pIC50 ([12]; Table 3): > 6.01
pIC50 [13]: 5.23 to 6.01
pIC50 ([14]; Table 3): < 4.96
pIC50 ([15]; Table 3): < 4.96
pIC50 [16]: < 4.96
pIC50 [17]: < 4.96
pIC50 [18]: 5.23 to 6.01
pIC50 [19]: > 6.01

COc1cc(Nc2ncnc(-n3cc(CCO)c4ccccc43)n2)cc(OC)c1OC [Compound 463]
pIC50 [1]: > 6.02
pIC50 ([2]; Table 3): < 4.97
pIC50 [4]: < 4.97
pIC50 [5]: < 4.97
pIC50 [6]: 5.24 to 6.02
pIC50 [8]: > 6.02
pIC50 [9]: < 4.97
pIC50 [11]: < 4.97
pIC50 ([12]; Table 3): > 6.02
pIC50 [13]: > 6.02
pIC50 ([14]; Table 3): < 4.97
pIC50 ([15]; Table 3): < 4.97
pIC50 [16]: < 4.97
pIC50 [17]: < 4.97
pIC50 [18]: 5.24 to 6.02
pIC50 [19]: > 6.02

COc1cc(Nc2ncnc(-n3c(NC(C)C)nc4ccccc43)n2)cc(OC)c1OC [Compound 403]
pIC50 [1]: > 6.04
pIC50 ([2]; Table 3): > 6.04
pIC50 [4]: < 4.99
pIC50 [5]: < 4.99
pIC50 [6]: 5.26 to 6.04
pIC50 [8]: 5.26 to 6.04
pIC50 [9]: < 4.99
pIC50 [11]: < 4.99
pIC50 ([12]; Table 3): > 6.04
pIC50 [13]: 5.26 to 6.04
pIC50 ([14]; Table 3): < 4.99
pIC50 ([15]; Table 3): < 4.99
pIC50 [16]: < 4.99
pIC50 [17]: < 4.99
pIC50 [18]: > 6.04
pIC50 [19]: > 6.04

COc1ccc(Nc2nc3ccccc3n2-c2ncnc(Nc3cc(OC)c(OC)c(OC)c3)n2)cc1OC [Compound 400]
pIC50 [1]: < 5.07
pIC50 ([2]; Table 3): < 5.07
pIC50 [4]: < 5.07
pIC50 [5]: < 5.07
pIC50 [6]: < 5.07
pIC50 [8]: < 5.07
pIC50 [9]: < 5.07
pIC50 [11]: < 5.07
pIC50 ([12]; Table 3): > 6.12
pIC50 [13]: 5.34 to 6.12
pIC50 ([14]; Table 3): < 5.07
pIC50 ([15]; Table 3): < 5.07
pIC50 [16]: < 5.07
pIC50 [17]: < 5.07
pIC50 [18]: < 5.07
pIC50 [19]: < 5.07
